Measurements: ChEMBL document CHEMBL1201862, “PubChem BioAssay data set” (2004)
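Each compound was tested at five concentrations against cells in 96-well plates for 48 hours. At the GI50, growth is halved.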 Active and inactive are the calls of the source. Rule as the data show it: active = GI50 up to about 1.1 µM and inactive = higher.

Key:
Assay in all cases: growth of human tumour cells (NCI), 48 h
SR = test system: SR
MOLT-4 = test system: MOLT-4
M14 = test system: M14
DU-145 = test system: DU-145
NCI-H226 = test system: NCI-H226
HT-29 = test system: HT-29
LOX IMVI = test system: LOX IMVI
786-0 = test system: 786-0
COLO 205 = test system: COLO 205
NCI/ADR-RES = test system: NCI/ADR-RES
SF-268 = test system: SF-268
A549 = test system: A549
EKVX = test system: EKVX
NCI-H522 = test system: NCI-H522
NCI-H460 = test system: NCI-H460
CAKI-1 = test system: CAKI-1
UACC-257 = test system: UACC-257
BT-549 = test system: BT-549
MDA-N = test system: MDA-N

Row | SMILES | GI50 (SR) | GI50 (MOLT-4) | GI50 (M14) | GI50 (DU-145) | GI50 (NCI-H226) | GI50 (HT-29) | GI50 (LOX IMVI) | GI50 (786-0) | GI50 (COLO 205) | GI50 (NCI/ADR-RES) | GI50 (SF-268) | GI50 (A549) | GI50 (EKVX) | GI50 (NCI-H522) | GI50 (NCI-H460) | GI50 (CAKI-1) | GI50 (UACC-257) | GI50 (BT-549) | GI50 (MDA-N)
1 | COC(=O)CN(CC1O[C@@H]2OC(C)(C)O[C@@H]2C1N=[N+]=[N-])C(=O)OCc1ccccc1 (stereo not given in full) | > 100 µM (inactive) | 51.4 µM (inactive) | > 100 µM (inactive) | > 100 µM (inactive) | > 100 µM (inactive) | > 100 µM (inactive) | > 100 µM (inactive) | > 100 µM (inactive) | > 100 µM (inactive) | 30.9 µM (inactive) | > 100 µM (inactive) | > 100 µM (inactive) | > 100 µM (inactive) | > 100 µM (inactive) | > 100 µM (inactive) | > 100 µM (inactive) | > 100 µM (inactive) | > 100 µM (inactive) | –
2 | CC(C)=C1C(=O)C[C@]2(C)C[C@H]3O[C@]3(C)CC[C@@H]3O[C@@]3(C)CC[C@@H]12 | 34.5 µM (inactive) | > 50 µM (inactive) | > 50 µM (inactive) | > 50 µM (inactive) | > 50 µM (inactive) | > 50 µM (inactive) | 17.5 µM (inactive) | > 50 µM (inactive) | > 50 µM (inactive) | > 50 µM (inactive) | > 50 µM (inactive) | > 50 µM (inactive) | > 50 µM (inactive) | 34 µM (inactive) | > 50 µM (inactive) | > 50 µM (inactive) | > 50 µM (inactive) | > 50 µM (inactive) | –
3 | CSCCCNC(=O)c1csc(-c2csc(CCN)n2)n1 | 91.4 µM (inactive) | > 100 µM (inactive) | > 100 µM (inactive) | > 100 µM (inactive) | – | 82.8 µM (inactive) | 59.7 µM (inactive) | > 100 µM (inactive) | > 100 µM (inactive) | > 100 µM (inactive) | > 100 µM (inactive) | > 100 µM (inactive) | > 100 µM (inactive) | > 100 µM (inactive) | 91 µM (inactive) | > 100 µM (inactive) | > 100 µM (inactive) | > 100 µM (inactive) | –
4 | CCOC(=O)C1CCCCc2sc(N)c(C#N)c21 (stereo not given) | > 100 µM (inactive) | > 100 µM (inactive) | > 100 µM (inactive) | – | > 100 µM (inactive) | > 100 µM (inactive) | – | > 100 µM (inactive) | > 100 µM (inactive) | – | – | > 100 µM (inactive) | > 100 µM (inactive) | – | > 100 µM (inactive) | – | > 100 µM (inactive) | > 100 µM (inactive) | > 100 µM (inactive)
5 | Cc1cc(C(=O)CBr)c(CN2C(=O)c3ccccc3C2=O)c(=O)n1C | 1.64 µM (inactive) | 1.93 µM (inactive) | 43.1 µM (inactive) | 13.7 µM (inactive) | 49.5 µM (inactive) | 14.2 µM (inactive) | 12.9 µM (inactive) | 21.8 µM (inactive) | 8.43 µM (inactive) | 47.8 µM (inactive) | 24.4 µM (inactive) | 18.8 µM (inactive) | 2.21 µM (inactive) | 16.1 µM (inactive) | 26.3 µM (inactive) | 20.6 µM (inactive) | 17 µM (inactive) | 18.1 µM (inactive) | –
6 | O=C1Nc2ccccc2/C1=c1\[nH]c(=O)/c(=C\c2ccc(OCc3ccccc3)cn2)[nH]c1=O | 20.1 µM (inactive) | 52.8 µM (inactive) | 56.6 µM (inactive) | 86.5 µM (inactive) | > 100 µM (inactive) | > 100 µM (inactive) | > 100 µM (inactive) | 18.8 µM (inactive) | > 100 µM (inactive) | 91.6 µM (inactive) | 21.2 µM (inactive) | > 100 µM (inactive) | 86.7 µM (inactive) | 94.4 µM (inactive) | > 100 µM (inactive) | 0.303 µM (active) | > 100 µM (inactive) | – | 83.2 µM (inactive)
7 | O=C(O)c1cccc(S(=O)(=O)NN2C(=O)CSC2c2ccc(Cl)cc2Cl)c1 (stereo not given) | 17.6 µM (inactive) | 28.8 µM (inactive) | 34.5 µM (inactive) | > 100 µM (inactive) | 35.4 µM (inactive) | 32.5 µM (inactive) | 34.2 µM (inactive) | 16 µM (inactive) | > 100 µM (inactive) | – | 36.2 µM (inactive) | > 100 µM (inactive) | 68.5 µM (inactive) | 24.7 µM (inactive) | 41.3 µM (inactive) | > 100 µM (inactive) | 35.2 µM (inactive) | 29.1 µM (inactive) | 24.7 µM (inactive)
8 | COc1ccc2nc(NC(=O)C(=O)NNC(=O)c3ccncc3)sc2c1 | – | – | > 100 µM (inactive) | – | > 100 µM (inactive) | > 100 µM (inactive) | > 100 µM (inactive) | > 100 µM (inactive) | > 100 µM (inactive) | – | > 100 µM (inactive) | > 100 µM (inactive) | > 100 µM (inactive) | > 100 µM (inactive) | > 100 µM (inactive) | > 100 µM (inactive) | > 100 µM (inactive) | – | –
9 | Cn1c(=S)sc2nc3ccccc3n2c1=S | 2.37 µM (inactive) | 5.36 µM (inactive) | 4.47 µM (inactive) | 5.35 µM (inactive) | 21.4 µM (inactive) | 5.81 µM (inactive) | 5.97 µM (inactive) | 12.7 µM (inactive) | 9.51 µM (inactive) | 13.4 µM (inactive) | 10.9 µM (inactive) | 24.7 µM (inactive) | 17.3 µM (inactive) | 4.21 µM (inactive) | 9.86 µM (inactive) | 14.6 µM (inactive) | 12.3 µM (inactive) | – | 12.6 µM (inactive)
10 | O=C1OC(c2ccccc2)=N/C1=C/C=C/c1ccco1 | > 100 µM (inactive) | > 100 µM (inactive) | > 100 µM (inactive) | – | – | > 100 µM (inactive) | – | > 100 µM (inactive) | > 100 µM (inactive) | – | > 100 µM (inactive) | > 100 µM (inactive) | > 100 µM (inactive) | > 100 µM (inactive) | – | > 100 µM (inactive) | – | – | –
11 | O=C1c2c(nc3ccccc3c2-c2ccccc2)CN1Nc1ccccc1 | > 100 µM (inactive) | > 100 µM (inactive) | > 100 µM (inactive) | – | > 100 µM (inactive) | > 100 µM (inactive) | > 100 µM (inactive) | > 100 µM (inactive) | > 100 µM (inactive) | – | > 100 µM (inactive) | > 100 µM (inactive) | > 100 µM (inactive) | > 100 µM (inactive) | – | > 100 µM (inactive) | > 100 µM (inactive) | – | –
12 | N/N=C(\N)Nc1cccc2ccccc12 | > 100 µM (inactive) | > 100 µM (inactive) | > 100 µM (inactive) | > 100 µM (inactive) | > 100 µM (inactive) | > 100 µM (inactive) | – | > 100 µM (inactive) | > 100 µM (inactive) | > 100 µM (inactive) | > 100 µM (inactive) | > 100 µM (inactive) | > 100 µM (inactive) | – | > 100 µM (inactive) | – | > 100 µM (inactive) | – | –
13 | CCC(=O)NCC1CCCN2CCCCC12 (stereo not given) | – | > 100 µM (inactive) | – | > 100 µM (inactive) | > 100 µM (inactive) | > 100 µM (inactive) | > 100 µM (inactive) | > 100 µM (inactive) | > 100 µM (inactive) | > 100 µM (inactive) | > 100 µM (inactive) | > 100 µM (inactive) | > 100 µM (inactive) | – | > 100 µM (inactive) | > 100 µM (inactive) | > 100 µM (inactive) | > 100 µM (inactive) | > 100 µM (inactive)
14 | CC(C)OC(=O)NCCn1cc(-c2ccccc2)nn1 | > 100 µM (inactive) | > 100 µM (inactive) | > 100 µM (inactive) | > 100 µM (inactive) | > 100 µM (inactive) | > 100 µM (inactive) | > 100 µM (inactive) | > 100 µM (inactive) | > 100 µM (inactive) | > 100 µM (inactive) | > 100 µM (inactive) | > 100 µM (inactive) | > 100 µM (inactive) | > 100 µM (inactive) | > 100 µM (inactive) | > 100 µM (inactive) | > 100 µM (inactive) | > 100 µM (inactive) | –
15 | NNC1=N/C(=C\c2ccco2)C(=O)N1 | > 100 µM (inactive) | 64.7 µM (inactive) | > 100 µM (inactive) | – | > 100 µM (inactive) | > 100 µM (inactive) | 60.1 µM (inactive) | > 100 µM (inactive) | > 100 µM (inactive) | > 100 µM (inactive) | – | 80.9 µM (inactive) | > 100 µM (inactive) | 50.6 µM (inactive) | – | > 100 µM (inactive) | > 100 µM (inactive) | 40.6 µM (inactive) | > 100 µM (inactive)
16 | O=C1C(O)=C(CN(CCCl)CCCl)C(=O)c2ccccc21 | 35.6 µM (inactive) | 29.3 µM (inactive) | 65.6 µM (inactive) | – | – | 42.8 µM (inactive) | – | 28.2 µM (inactive) | – | – | 43.1 µM (inactive) | 34.3 µM (inactive) | > 100 µM (inactive) | 66.8 µM (inactive) | 29.2 µM (inactive) | 39.7 µM (inactive) | – | – | –
17 | CC(C)N1C(C)[C@@H](c2ccccc2)O[P@@]1(=O)CC1=CCCCC1 (stereo not given in full) | 69.5 µM (inactive) | 80.7 µM (inactive) | > 100 µM (inactive) | – | > 100 µM (inactive) | > 100 µM (inactive) | > 100 µM (inactive) | > 100 µM (inactive) | > 100 µM (inactive) | – | > 100 µM (inactive) | > 100 µM (inactive) | > 100 µM (inactive) | > 100 µM (inactive) | > 100 µM (inactive) | – | > 100 µM (inactive) | – | –
